# Molecular target: T1, NqrB and NqrC subunits of P. bryantii B14 (Segatella baroniae, UniProt D8DWB9+D8DWC0)
# T1 sequence (D8DWC0 1-385): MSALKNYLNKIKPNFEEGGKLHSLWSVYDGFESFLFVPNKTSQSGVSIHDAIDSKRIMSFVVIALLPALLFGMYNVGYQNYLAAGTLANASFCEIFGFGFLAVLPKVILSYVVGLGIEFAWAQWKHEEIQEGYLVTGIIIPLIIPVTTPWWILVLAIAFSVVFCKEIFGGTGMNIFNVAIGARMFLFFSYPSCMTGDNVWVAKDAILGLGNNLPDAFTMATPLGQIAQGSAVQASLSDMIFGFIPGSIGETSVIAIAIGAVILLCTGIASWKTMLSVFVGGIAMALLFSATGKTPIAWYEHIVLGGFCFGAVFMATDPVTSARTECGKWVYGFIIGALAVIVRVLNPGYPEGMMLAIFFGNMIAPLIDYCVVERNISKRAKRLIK
# T1 sequence (D8DWB9 1-210): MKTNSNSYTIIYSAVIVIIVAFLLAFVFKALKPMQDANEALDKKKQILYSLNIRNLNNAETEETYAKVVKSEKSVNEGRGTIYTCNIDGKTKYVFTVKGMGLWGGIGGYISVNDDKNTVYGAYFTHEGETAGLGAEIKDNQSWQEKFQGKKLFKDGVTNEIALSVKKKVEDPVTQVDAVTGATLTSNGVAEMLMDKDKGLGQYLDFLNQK
# Test: in-gel fluorescence after SDS-PAGE (excitation […] nm)
# Assay type: biochemical
structure (smiles),measurement,value
Cc1cc2nc3c(=O)[nH]c(=O)nc-3n(C[C@H](O)[C@H](O)[C@H](O)COP(=O)(O)O)c2cc1C [flavin mononucleotide],in-gel fluorescence after SDS-PAGE (excitation 460 nm),verified by in-gel fluorescence detection of covalently bound FMN chromophores
